Legend:
Assay type in all cases: functional
K562 = assay: Cytotoxicity against human K562 cells assessed as growth inhibition after 48 hrs by sulforhodamine B assay; details: K562, 48 h
COLO 205 = assay: Cytotoxicity against human COLO205 cells assessed as growth inhibition after 48 hrs by sulforhodamine B assay; details: COLO 205, 48 h
MDA-MB-435 [1] = assay: Cytotoxicity against human MDA-MB-435 cells assessed as growth inhibition after 48 hrs by sulforhodamine B assay; details: MDA-MB-435, 48 h
IGROV-1 [2] = assay: Cytotoxicity against human IGROV1 cells assessed as growth inhibition after 48 hrs by sulforhodamine B assay; details: IGROV-1, 48 h
OVCAR-5 = assay: Cytotoxicity against human OVCAR5 cells assessed as growth inhibition after 48 hrs by sulforhodamine B assay; details: OVCAR-5, 48 h
NCI/ADR-RES [3] = assay: Cytotoxicity against human NCI/ADR-RES cells assessed as growth inhibition after 48 hrs by sulforhodamine B assay
SK-OV-3 = assay: Cytotoxicity against human SKOV3 cells assessed as growth inhibition after 48 hrs by sulforhodamine B assay; details: SK-OV-3, 48 h
A498 = assay: Cytotoxicity against human A498 cells assessed as growth inhibition after 48 hrs by sulforhodamine B assay; details: A498, 48 h
PC-3 = assay: Cytotoxicity against human PC3 cells assessed as growth inhibition after 48 hrs by sulforhodamine B assay; details: PC-3, 48 h
OVCAR-8 [4] = assay: Cytotoxicity against human OVCAR8 cells assessed as cell growth at 0.01 uM after 48 hrs by sulforhodamine B assay relative to control; details: OVCAR-8, 48 h, read-out: Activity
SW-620 [5] = assay: Cytotoxicity against human SW620 cells assessed as cell growth at 0.01 uM after 48 hrs by sulforhodamine B assay relative to control; details: SW-620, 48 h, read-out: Activity
NCI-H226 = assay: Cytotoxicity against human NCI-H226 cells assessed as cell growth at 0.01 uM after 48 hrs by sulforhodamine B assay relative to control; details: NCI-H226, 48 h, read-out: Activity
HL-60(TB) = assay: Cytotoxicity against human HL-60(TB) cells assessed as cell growth at 0.01 uM after 48 hrs by sulforhodamine B assay relative to control; details: HL-60, 48 h, read-out: Activity
MCF7 [6] = assay: Cytotoxicity against human MCF7 cells assessed as cell growth at 0.01 uM after 48 hrs by sulforhodamine B assay relative to control; details: MCF7, 48 h, read-out: Activity
CCRF-CEM = assay: Cytotoxicity against human CCRF-CEM cells assessed as cell growth at 0.1 uM after 48 hrs by sulforhodamine B assay relative to control; details: read-out: Activity
HOP-62 [7] = assay: Cytotoxicity against human HOP62 cells assessed as cell growth at 0.1 uM after 48 hrs by sulforhodamine B assay relative to control; details: HOP-62, 48 h, read-out: Activity
KM12 [8] = assay: Cytotoxicity against human KM12 cells assessed as cell growth at 0.1 uM after 48 hrs by sulforhodamine B assay relative to control; details: KM12, 48 h, read-out: Activity
Malme-3M = assay: Cytotoxicity against human MALME-3M cells assessed as cell growth at 0.1 uM after 48 hrs by sulforhodamine B assay relative to control; details: read-out: Activity
OVCAR-3 = assay: Cytotoxicity against human OVCAR3 cells assessed as cell growth at 0.1 uM after 48 hrs by sulforhodamine B assay relative to control; details: OVCAR-3, 48 h, read-out: Activity
ACHN = assay: Cytotoxicity against human ACHN cells assessed as cell growth at 0.1 uM after 48 hrs by sulforhodamine B assay relative to control; details: read-out: Activity
MCF7 [9] = assay: Cytotoxicity against human MCF7 cells assessed as cell growth at 0.1 uM after 48 hrs by sulforhodamine B assay relative to control; details: MCF7, 48 h, read-out: Activity
SR [10] = assay: Cytotoxicity against human SR cells assessed as cell growth at 1 uM after 48 hrs by sulforhodamine B assay relative to control; details: read-out: Activity
KM12 [11] = assay: Cytotoxicity against human KM12 cells assessed as cell growth at 1 uM after 48 hrs by sulforhodamine B assay relative to control; details: KM12, 48 h, read-out: Activity
SF-539 = assay: Cytotoxicity against human SF539 cells assessed as cell growth at 1 uM after 48 hrs by sulforhodamine B assay relative to control; details: SF-539, 48 h, read-out: Activity
OVCAR-8 [12] = assay: Cytotoxicity against human OVCAR8 cells assessed as cell growth at 1 uM after 48 hrs by sulforhodamine B assay relative to control; details: OVCAR-8, 48 h, read-out: Activity
NCI/ADR-RES [13] = assay: Cytotoxicity against human NCI/ADR-RES cells assessed as cell growth at 1 uM after 48 hrs by sulforhodamine B assay relative to control; details: read-out: Activity
SN12C = assay: Cytotoxicity against human SN12C cells assessed as cell growth at 1 uM after 48 hrs by sulforhodamine B assay relative to control; details: read-out: Activity
Hs-578T = assay: Cytotoxicity against human Hs 578T cells assessed as cell growth at 1 uM after 48 hrs by sulforhodamine B assay relative to control; details: read-out: Activity
T47D = assay: Cytotoxicity against human T47D cells assessed as cell growth at 1 uM after 48 hrs by sulforhodamine B assay relative to control; details: read-out: Activity
MOLT-4 = assay: Cytotoxicity against human MOLT4 cells assessed as cell growth at 10 uM after 48 hrs by sulforhodamine B assay relative to control; details: MOLT-4, 48 h, read-out: Activity
HOP-62 [14] = assay: Cytotoxicity against human HOP62 cells assessed as cell growth at 10 uM after 48 hrs by sulforhodamine B assay relative to control; details: HOP-62, 48 h, read-out: Activity
NCI-H460 = assay: Cytotoxicity against human NCI-H460 cells assessed as cell growth at 10 uM after 48 hrs by sulforhodamine B assay relative to control; details: NCI-H460, 48 h, read-out: Activity
MDA-MB-435 [15] = assay: Cytotoxicity against human MDA-MB-435 cells assessed as cell growth at 10 uM after 48 hrs by sulforhodamine B assay relative to control; details: MDA-MB-435, 48 h, read-out: Activity
IGROV-1 [16] = assay: Cytotoxicity against human IGROV1 cells assessed as cell growth at 10 uM after 48 hrs by sulforhodamine B assay relative to control; details: IGROV-1, 48 h, read-out: Activity
SR [17] = assay: Cytotoxicity against human SR cells assessed as cell growth at 100 uM after 48 hrs by sulforhodamine B assay relative to control; details: read-out: Activity
SW-620 [18] = assay: Cytotoxicity against human SW620 cells assessed as cell growth at 100 uM after 48 hrs by sulforhodamine B assay relative to control; details: SW-620, 48 h, read-out: Activity
MDA-MB-435 [19] = assay: Cytotoxicity against human MDA-MB-435 cells assessed as cell growth at 100 uM after 48 hrs by sulforhodamine B assay relative to control; details: MDA-MB-435, 48 h, read-out: Activity

In the case of COc1ccc(-c2cc(/C=C/C(=O)c3ccc(N)cc3)[nH]n2)cc1OC, the GI50 (K562) is reported as 2.03 µM, the LC50 (concentration killing 50% of cells) (K562) is reported as > 100 µM and the TGI (K562) is reported as 36.4 µM. The GI50 (COLO 205) was 1.88 µM, the LC50 (COLO 205) was 6.87 µM and the TGI (COLO 205) was 3.59 µM. For the same compound, the GI50 (MDA-MB-435 [1]) was 2.53 µM, the LC50 (MDA-MB-435 [1]) was 40.8 µM and the TGI (MDA-MB-435 [1]) was 7.23 µM. For the same compound, the GI50 (IGROV-1 [2]) was 4.56 µM, the LC50 (IGROV-1 [2]) was 73 µM and the TGI (IGROV-1 [2]) was 19 µM. The GI50 (OVCAR-5) was 2.62 µM, the LC50 (OVCAR-5) was 36.3 µM and the TGI (OVCAR-5) was 7.94 µM. The GI50 (NCI/ADR-RES [3]) was 6.21 µM, the LC50 (NCI/ADR-RES [3]) was > 100 µM and the TGI (NCI/ADR-RES [3]) was > 100 µM. For the same compound, the GI50 (SK-OV-3) was 4.86 µM, the LC50 (SK-OV-3) was 41.3 µM and the TGI (SK-OV-3) was 16.8 µM. For the same compound, the GI50 (A498) was 2.37 µM, the LC50 (A498) was 26.2 µM and the TGI (A498) was 7.09 µM. The GI50 (PC-3) was 3.71 µM, the LC50 (PC-3) was > 100 µM and the TGI (PC-3) was 19.8 µM. For the same compound, the growth at 0.01 µM (OVCAR-8 [4]) was 98%, the growth at 0.01 µM (SW-620 [5]) was 99% and the growth at 0.01 µM (NCI-H226) was 93%. For the same compound, the growth at 0.01 µM (HL-60(TB)) was 104%, the growth at 0.01 µM (MCF7 [6]) was 89% and the growth at 0.1 µM (CCRF-CEM) was 97%. It also gave a growth at 0.1 µM (HOP-62 [7]) of 91%, a growth at 0.1 µM (KM12 [8]) of 104% and a growth at 0.1 µM (Malme-3M) of 108%. It also gave a growth at 0.1 µM (OVCAR-3) of 108%, a growth at 0.1 µM (ACHN) of 93% and a growth at 0.1 µM (MCF7 [9]) of 89%. For the same compound, the growth at 1 µM (SR [10]) was 34%, the growth at 1 µM (KM12 [11]) was 88% and the growth at 1 µM (SF-539) was 88%. For the same compound, the growth at 1 µM (OVCAR-8 [12]) was 93%, the growth at 1 µM (NCI/ADR-RES [13]) was 99% and the growth at 1 µM (SN12C) was 93%. It also gave a growth at 1 µM (Hs-578T) of 96%, a growth at 1 µM (T47D) of 87% and a growth at 10 µM (MOLT-4) of 6%. It also gave a growth at 10 µM (HOP-62 [14]) of -1%, a growth at 10 µM (NCI-H460) of -49% and a growth at 10 µM (MDA-MB-435 [15]) of -15%. It also gave a growth at 10 µM (IGROV-1 [16]) of 24%, a growth at 100 µM (SR [17]) of -5% and a growth at 100 µM (SW-620 [18]) of -53%. The growth at 100 µM (MDA-MB-435 [19]) was -72%.

Work on COc1ccc(-c2cc(/C=C/C(=O)c3ccc(N)cc3)[nH]n2)cc1 yielded a GI50 (K562) of 1.42 µM, an LC50 (concentration killing 50% of cells) (K562) of 69.7 µM and a TGI (K562) of 11.6 µM. It also gave a GI50 (COLO 205) of 1.85 µM, an LC50 (COLO 205) of 6.41 µM and a TGI (COLO 205) of 3.45 µM. The GI50 (MDA-MB-435 [1]) was 2.24 µM, the LC50 (MDA-MB-435 [1]) was 38.2 µM and the TGI (MDA-MB-435 [1]) was 7 µM. The GI50 (IGROV-1 [2]) was 2.27 µM, the LC50 (IGROV-1 [2]) was 43.3 µM and the TGI (IGROV-1 [2]) was 6.45 µM. It also gave a GI50 (OVCAR-5) of 2.06 µM, an LC50 (OVCAR-5) of 16 µM and a TGI (OVCAR-5) of 4.92 µM. For the same compound, the GI50 (NCI/ADR-RES [3]) was 2.86 µM, the LC50 (NCI/ADR-RES [3]) was > 100 µM and the TGI (NCI/ADR-RES [3]) was 15.5 µM. The GI50 (SK-OV-3) was 4.72 µM, the LC50 (SK-OV-3) was 63.6 µM and the TGI (SK-OV-3) was 18 µM. It also gave a GI50 (A498) of 2.03 µM, an LC50 (A498) of 15.4 µM and a TGI (A498) of 4.95 µM. The GI50 (PC-3) was 2.42 µM, the LC50 (PC-3) was 39.8 µM and the TGI (PC-3) was 10.1 µM. For the same compound, the growth at 0.01 µM (OVCAR-8 [4]) was 96%, the growth at 0.01 µM (SW-620 [5]) was 100% and the growth at 0.01 µM (NCI-H226) was 102%. It also gave a growth at 0.01 µM (HL-60(TB)) of 96%, a growth at 0.01 µM (MCF7 [6]) of 84% and a growth at 0.1 µM (CCRF-CEM) of 98%. For the same compound, the growth at 0.1 µM (HOP-62 [7]) was 100%, the growth at 0.1 µM (KM12 [8]) was 97% and the growth at 0.1 µM (Malme-3M) was 86%. It also gave a growth at 0.1 µM (OVCAR-3) of 96%, a growth at 0.1 µM (ACHN) of 105% and a growth at 0.1 µM (MCF7 [9]) of 94%. It also gave a growth at 1 µM (SR [10]) of 45%, a growth at 1 µM (KM12 [11]) of 77% and a growth at 1 µM (SF-539) of 72%. For the same compound, the growth at 1 µM (OVCAR-8 [12]) was 76%, the growth at 1 µM (NCI/ADR-RES [13]) was 85% and the growth at 1 µM (SN12C) was 76%. It also gave a growth at 1 µM (Hs-578T) of 93%, a growth at 1 µM (T47D) of 60% and a growth at 10 µM (MOLT-4) of -2%. The growth at 10 µM (HOP-62 [14]) was -15%, the growth at 10 µM (NCI-H460) was -40% and the growth at 10 µM (MDA-MB-435 [15]) was -16%. It also gave a growth at 10 µM (IGROV-1 [16]) of -21%, a growth at 100 µM (SR [17]) of -61% and a growth at 100 µM (SW-620 [18]) of -58%. It also gave a growth at 100 µM (MDA-MB-435 [19]) of -75%.

From ChEMBL document CHEMBL4138123, “Design, synthesis and biological evaluation of novel pyrazolochalcones as potential modulators of PI3K/Akt/mTOR pathway and inducers of apoptosis in breast cancer cells” (Eur J Med Chem, 2017)
